How the values were obtained:
GST-Bcl-2 = GST-Bcl-2 (Homo sapiens, UniProt P10415); assay: TR-FRET binding assay, GST-Bcl-2 with F-Bak peptide probe; settings: for Ki: TR-FRET Binding Affinity, GST-Bcl-2, F-Bak peptide probe; for Binding selectivity ratio (Bcl-XL Ki/Bcl-2 Ki): ratio of TR-FRET Ki values, Bcl-XL over Bcl-2
Summary of the method: (§1)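 Displacement of a fluorescein-labelled Bak peptide from the GST-tagged protein was followed by time-resolved FRET with a terbium anti-GST donor after 3 h incubation at room temperature. Inhibition constants were calculated with Wang's equation.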

GST-Bcl-XL = GST-Bcl-XL (Homo sapiens, UniProt Q07817); assay: TR-FRET binding assay, GST-Bcl-XL with F-Bak peptide probe; settings: TR-FRET Binding Affinity, GST-Bcl-XL, F-Bak peptide probe
Chain of GST-Bcl-XL (Q07817 whole entry): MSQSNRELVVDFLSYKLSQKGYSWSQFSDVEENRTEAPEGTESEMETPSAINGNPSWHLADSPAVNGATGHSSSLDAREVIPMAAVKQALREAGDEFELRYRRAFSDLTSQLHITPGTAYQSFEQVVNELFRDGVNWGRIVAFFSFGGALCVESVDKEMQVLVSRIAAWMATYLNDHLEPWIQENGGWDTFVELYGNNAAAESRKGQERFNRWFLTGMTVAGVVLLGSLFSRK
Summary of the method: as §1

Canine platelets = assay: Platelet cell viability assay (platelet-rich plasma, Cell Titer Glo); assay type: cell-based; settings: Canis lupus familiaris, 5 h, isolated canine platelets ex vivo, five hours at 37° C.
Procedure: After the incubation, platelets were equilibrated to room temperature for 20 minutes and then an equal volume of Cell Titer Glo reagent (Promega Corporation) was added. Samples were mixed for two minutes and then allowed to equilibrate for an additional 10 minutes at room temperature. The luminescence generated from the samples was quantitated using an LJL Analyst plate reader.
The effect of compounds on platelet survival can be directly evaluated ex vivo by examining the viability of isolated canine platelets in the presence of various concentrations of compound.

FL5.12/Bcl-2 cells = assay: FL5.12/Bcl-2 cell viability assay under IL-3 withdrawal (CellTitre Glo); assay type: cell-based, murine; settings: Mus musculus, IL-3 withdrawn 48 hrs, then 24 hrs with compound
Summary of the method: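 Viability measured by CellTitre Glo after FL5.12/Bcl-2 murine cells, starved of IL-3 for 48 hrs, were treated with compounds for another 24 hrs. Killing reflects inhibition of Bcl-2 sequestration of Bim and Puma.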

Chain of GST-Bcl-2 (P10415 whole entry): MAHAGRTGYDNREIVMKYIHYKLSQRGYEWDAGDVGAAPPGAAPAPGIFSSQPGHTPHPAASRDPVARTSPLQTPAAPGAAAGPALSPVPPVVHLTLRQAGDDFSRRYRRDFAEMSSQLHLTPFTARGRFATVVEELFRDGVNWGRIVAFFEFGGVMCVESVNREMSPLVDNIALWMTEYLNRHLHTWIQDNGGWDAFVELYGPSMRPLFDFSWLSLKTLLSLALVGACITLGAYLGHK

CN1CCC(Nc2ccc(S(=O)(=O)NC(=O)c3ccc(N4CCN(CC5=C(c6ccc(Cl)cc6)CCC5)CC4)cc3Oc3cccc4[nH]ccc34)cc2[N+](=O)[O-])CC1 [Example 148, 4-(4-{[2-(4-chlorophenyl)cyclopent-1-en-1-yl]methyl}piperazin-1-yl)-2-(1H-indol-4-yloxy)-N-({4-[(1-methylpiperidin-4-yl)amino]-3-nitrophenyl}sulfonyl)benzamide]
Ki (GST-Bcl-2): 2.89 nM
Ki (GST-Bcl-XL): > 660 nM
EC50 (Canine platelets): 19800 nM

CC1(C)CCC(CN2CCN(c3ccc(C(=O)NS(=O)(=O)c4ccc(NCC5CCOCC5)c([N+](=O)[O-])c4)c(Oc4cccc5c4CCNC5)c3)CC2)=C(c2ccc(Cl)cc2)C1 [Example 399, 4-(4-{[2-(4-chlorophenyl)-4,4-dimethylcyclohex-1-en-1-yl]methyl}piperazin-1-yl)-N-({3-nitro-4-[(tetrahydro-2H-pyran-4-ylmethyl)amino]phenyl}sulfonyl)-2-(1,2,3,4-tetrahydroisoquinolin-5-yloxy)benzamide]
Ki (GST-Bcl-2): 2.92 nM
Binding selectivity ratio (Bcl-XL Ki/Bcl-2 Ki) (GST-Bcl-2): >225764.5
Ki (GST-Bcl-XL): > 660000 nM
EC50 (FL5.12/Bcl-2 cells): > 500 nM

CC1(C)CCC(CN2CCN(c3ccc(C(=O)NS(=O)(=O)c4ccc(NCC5CCOCC5)c([N+](=O)[O-])c4)c(Oc4cccc5[nH]ncc45)c3)CC2)=C(c2ccc(Cl)cc2)C1 [Example 400, 4-(4-{[2-(4-chlorophenyl)-4,4-dimethylcyclohex-1-en-1-yl]methyl}piperazin-1-yl)-2-(1H-indazol-4-yloxy)-N-({3-nitro-4-[(tetrahydro-2H-pyran-4-ylmethyl)amino]phenyl}sulfonyl)benzamide]
Ki (GST-Bcl-2): < 0.01 nM
Ki (GST-Bcl-XL): 36.4 nM
EC50 (FL5.12/Bcl-2 cells): 8.47 nM

CC1(C)CCC(CN2CCN(c3ccc(C(=O)NS(=O)(=O)c4ccc(NC5CCN(C6CCOCC6)CC5)c([N+](=O)[O-])c4)c(Oc4cccc5[nH]ncc45)c3)CC2)=C(c2ccc(Cl)cc2)C1 [Example 401, 4-(4-{[2-(4-chlorophenyl)-4,4-dimethylcyclohex-1-en-1-yl]methyl}piperazin-1-yl)-2-(1H-indazol-4-yloxy)-N-({3-nitro-4-[(1-tetrahydro-2H-pyran-4-ylpiperidin-4-yl)amino]phenyl}sulfonyl)benzamide]
Ki (GST-Bcl-2): < 0.01 nM
Binding selectivity ratio (Bcl-XL Ki/Bcl-2 Ki) (GST-Bcl-2): >162.1
Ki (GST-Bcl-XL): 1.62 nM
EC50 (FL5.12/Bcl-2 cells): 5.38 nM

CC1(C)CCC(CN2CCN(c3ccc(C(=O)NS(=O)(=O)c4ccc(N[C@H]5CC[C@H](N6CCOCC6)CC5)c([N+](=O)[O-])c4)c(Oc4cccc5[nH]ncc45)c3)CC2)=C(c2ccc(Cl)cc2)C1 [Example 402, Trans-4-(4-{[2-(4-chlorophenyl)-4,4-dimethylcyclohex-1-en-1-yl]methyl}piperazin-1-yl)-2-(1H-indazol-4-yloxy)-N-({4-[(4-morpholin-4-ylcyclohexyl)amino]-3-nitrophenyl}sulfonyl)benzamide]
Ki (GST-Bcl-2): 0.03 nM
Binding selectivity ratio (Bcl-XL Ki/Bcl-2 Ki) (GST-Bcl-2): 137.4
Ki (GST-Bcl-XL): 4.15 nM
EC50 (FL5.12/Bcl-2 cells): 13.4 nM

CC1(C)CCC(CN2CCN(c3ccc(C(=O)NS(=O)(=O)c4ccc(NCC5CCOCC5)c([N+](=O)[O-])c4)c(Oc4cccc5[nH]cnc45)c3)CC2)=C(c2ccc(Cl)cc2)C1 [Example 403, 2-(1H-benzimidazol-4-yloxy)-4-(4-{[2-(4-chlorophenyl)-4,4-dimethylcyclohex-1-en-1-yl]methyl}piperazin-1-yl)-N-({3-nitro-4-[(tetrahydro-2H-pyran-4-ylmethyl)amino]phenyl}sulfonyl)benzamide]
Ki (GST-Bcl-2): 0.003 nM
Ki (GST-Bcl-XL): 24.3 nM
EC50 (FL5.12/Bcl-2 cells): 2.92 nM

CC1(C)CCC(CN2CCN(c3ccc(C(=O)NS(=O)(=O)c4cnc(OCC5(F)CCOCC5)c(Cl)c4)c(Oc4cccc5[nH]ncc45)c3)CC2)=C(c2ccc(Cl)cc2)C1 [Example 404, N-({5-chloro-6-[(4-fluorotetrahydro-2H-pyran-4-yl)methoxy]pyridin-3-yl}sulfonyl)-4-(4-{[2-(4-chlorophenyl)-4,4-dimethylcyclohex-1-en-1-yl]methyl}piperazin-1-yl)-2-(1H-indazol-4-yloxy)benzamide]
Ki (GST-Bcl-2): 0.012 nM
Binding selectivity ratio (Bcl-XL Ki/Bcl-2 Ki) (GST-Bcl-2): 2423.5
Ki (GST-Bcl-XL): 30.3 nM
EC50 (FL5.12/Bcl-2 cells): 2.34 nM

CC1(C)CCC(CN2CCN(c3ccc(C(=O)NS(=O)(=O)c4cnc(OCC5(F)CCOCC5)c(Cl)c4)c(Oc4cccc5[nH]ccc45)c3)CC2)=C(c2ccc(Cl)cc2)C1 [Example 405, N-({5-chloro-6-[(4-fluorotetrahydro-2H-pyran-4-yl)methoxy]pyridin-3-yl}sulfonyl)-4-(4-{[2-(4-chlorophenyl)-4,4-dimethylcyclohex-1-en-1-yl]methyl}piperazin-1-yl)-2-(1H-indol-4-yloxy)benzamide]
Ki (GST-Bcl-2): 0.04 nM
Binding selectivity ratio (Bcl-XL Ki/Bcl-2 Ki) (GST-Bcl-2): 1394.8
Ki (GST-Bcl-XL): 55.3 nM
EC50 (FL5.12/Bcl-2 cells): 11.6 nM

CC1(C)CCC(CN2CCN(c3ccc(C(=O)NS(=O)(=O)c4cnc(OCC5(F)CCOCC5)c(C#N)c4)c(Oc4cccc5[nH]ncc45)c3)CC2)=C(c2ccc(Cl)cc2)C1 [Example 406, 4-(4-{[2-(4-chlorophenyl)-4,4-dimethylcyclohex-1-en-1-yl]methyl}piperazin-1-yl)-N-({5-cyano-6-[(4-fluorotetrahydro-2H-pyran-4-yl)methoxy]pyridin-3-yl}sulfonyl)-2-(1H-indazol-4-yloxy)benzamide]
Ki (GST-Bcl-2): 0.035 nM
Ki (GST-Bcl-XL): 44.6 nM
EC50 (FL5.12/Bcl-2 cells): 20.5 nM

CC1(C)CCC(CN2CCN(c3ccc(C(=O)NS(=O)(=O)c4ccc(N[C@@H]5CCN(CC(F)F)C5)c([N+](=O)[O-])c4)c(Oc4cccc5[nH]cnc45)c3)CC2)=C(c2ccc(Cl)cc2)C1 [Example 407, 2-(1H-benzimidazol-4-yloxy)-4-(4-{[2-(4-chlorophenyl)-4,4-dimethylcyclohex-1-en-1-yl]methyl}piperazin-1-yl)-N-[(4-{[(3R)-1-(2,2-difluoroethyl)pyrrolidin-3-yl]amino}-3-nitrophenyl)sulfonyl]benzamide]
Ki (GST-Bcl-2): 0.015 nM
Binding selectivity ratio (Bcl-XL Ki/Bcl-2 Ki) (GST-Bcl-2): 4930.6
Ki (GST-Bcl-XL): 74.6 nM
EC50 (FL5.12/Bcl-2 cells): 8.1 nM

CC1(C)CCC(CN2CCN(c3ccc(C(=O)NS(=O)(=O)c4ccc(OCC5(F)CCOCC5)c([N+](=O)[O-])c4)c(Oc4cccc5[nH]cnc45)c3)CC2)=C(c2ccc(Cl)cc2)C1 [Example 408, 2-(1H-benzimidazol-4-yloxy)-4-(4-{[2-(4-chlorophenyl)-4,4-dimethylcyclohex-1-en-1-yl]methyl}piperazin-1-yl)-N-({4-[(4-fluorotetrahydro-2H-pyran-4-yl)methoxy]-3-nitrophenyl}sulfonyl)benzamide]
Ki (GST-Bcl-2): 0.002 nM
Ki (GST-Bcl-XL): 28.1 nM
EC50 (FL5.12/Bcl-2 cells): 2.39 nM

CC1(C)CCC(CN2CCN(c3ccc(C(=O)NS(=O)(=O)c4ccc(NCC5(F)CCOCC5)c([N+](=O)[O-])c4)c(Oc4cccc5[nH]ncc45)c3)CC2)=C(c2ccc(Cl)cc2)C1 [Example 409, 4-(4-{[2-(4-chlorophenyl)-4,4-dimethylcyclohex-1-en-1-yl]methyl}piperazin-1-yl)-N-[(4-{[(4-fluorotetrahydro-2H-pyran-4-yl)methyl]amino}-3-nitrophenyl)sulfonyl]-2-(1H-indazol-4-yloxy)benzamide]
Ki (GST-Bcl-2): < 0.01 nM
Ki (GST-Bcl-XL): 17.5 nM
EC50 (FL5.12/Bcl-2 cells): 1.2 nM

CC1(C)CCC(CN2CCN(c3ccc(C(=O)NS(=O)(=O)c4cnc(OCC5(F)CCOCC5)c(C(F)(F)F)c4)c(Oc4cccc5[nH]ncc45)c3)CC2)=C(c2ccc(Cl)cc2)C1 [Example 410, 4-(4-{[2-(4-chlorophenyl)-4,4-dimethylcyclohex-1-en-1-yl]methyl}piperazin-1-yl)-N-{[6-[(4-fluorotetrahydro-2H-pyran-4-yl)methoxy]-5-(trifluoromethyl)pyridin-3-yl]sulfonyl}-2-(1H-indazol-4-yloxy)benzamide]
Ki (GST-Bcl-2): 0.055 nM
Ki (GST-Bcl-XL): 102 nM
EC50 (FL5.12/Bcl-2 cells): 13.9 nM

CC1(C)CCC(CN2CCN(c3ccc(C(=O)NS(=O)(=O)c4ccc(NCC5CN(C6CC6)CCO5)c([N+](=O)[O-])c4)c(Oc4cccc5[nH]ncc45)c3)CC2)=C(c2ccc(Cl)cc2)C1 (centres unmarked) [Example 411, 4-(4-{[2-(4-chlorophenyl)-4,4-dimethylcyclohex-1-en-1-yl]methyl}piperazin-1-yl)-N-[(4-{[(4-cyclopropylmorpholin-2-yl)methyl]amino}-3-nitrophenyl)sulfonyl]-2-(1H-indazol-4-yloxy)benzamide]
Ki (GST-Bcl-2): 0.003 nM
Binding selectivity ratio (Bcl-XL Ki/Bcl-2 Ki) (GST-Bcl-2): 2352.3
Ki (GST-Bcl-XL): 7.45 nM
EC50 (FL5.12/Bcl-2 cells): 11.4 nM

CC1(C)CCC(CN2CCN(c3ccc(C(=O)NS(=O)(=O)c4ccc(NCC5CCC(F)(F)CC5)c([N+](=O)[O-])c4)c(Oc4cccc5[nH]ncc45)c3)CC2)=C(c2ccc(Cl)cc2)C1 [Example 412, 4-(4-{[2-(4-chlorophenyl)-4,4-dimethylcyclohex-1-en-1-yl]methyl}piperazin-1-yl)-N-[(4-{[(4,4-difluorocyclohexyl)methyl]amino}-3-nitrophenyl)sulfonyl]-2-(1H-indazol-4-yloxy)benzamide]
Ki (GST-Bcl-2): 0.021 nM
Binding selectivity ratio (Bcl-XL Ki/Bcl-2 Ki) (GST-Bcl-2): 6545.5
Ki (GST-Bcl-XL): 135 nM
EC50 (FL5.12/Bcl-2 cells): 9.48 nM
